From US10894784B2, “Heteroarylbenzimidazole compounds” (BAYER PHARMA AKTIENGESELLSCHAFT, priority 2015, dated 2021)

molecular target: TBK1 (Homo sapiens (Human), UniProt Q9UHD2); experiment: TBK1 low ATP kinase assay (in vitro assay 1); type: biochemical; conditions: in vitro assay 1, read-out: TBK1 low ATP kinase assay IC50
Sequence (Q9UHD2 whole entry): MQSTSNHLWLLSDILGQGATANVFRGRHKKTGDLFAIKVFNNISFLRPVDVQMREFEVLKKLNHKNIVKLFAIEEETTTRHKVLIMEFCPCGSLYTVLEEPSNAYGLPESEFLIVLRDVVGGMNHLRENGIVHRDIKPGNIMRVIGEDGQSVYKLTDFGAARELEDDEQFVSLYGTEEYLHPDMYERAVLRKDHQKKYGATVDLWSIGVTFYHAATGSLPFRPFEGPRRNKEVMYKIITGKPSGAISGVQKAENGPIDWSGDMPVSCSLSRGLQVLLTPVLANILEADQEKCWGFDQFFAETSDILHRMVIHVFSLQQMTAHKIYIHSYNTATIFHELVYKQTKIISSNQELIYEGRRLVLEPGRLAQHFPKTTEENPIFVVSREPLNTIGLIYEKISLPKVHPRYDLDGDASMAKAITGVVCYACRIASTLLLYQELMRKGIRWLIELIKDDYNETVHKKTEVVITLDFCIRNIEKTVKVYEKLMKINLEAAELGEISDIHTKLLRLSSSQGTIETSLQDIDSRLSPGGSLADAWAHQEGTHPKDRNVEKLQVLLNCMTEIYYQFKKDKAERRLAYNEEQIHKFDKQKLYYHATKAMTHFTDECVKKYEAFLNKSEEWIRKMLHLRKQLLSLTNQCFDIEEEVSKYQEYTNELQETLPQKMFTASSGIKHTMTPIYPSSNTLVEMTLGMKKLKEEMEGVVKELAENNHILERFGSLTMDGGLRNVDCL

How did the IC50 turn out when `COc1c(NC2CCC2)ncnc1-c1ccc2nc(Nc3cc(C(C)N4CCN(C(=O)CC(F)(F)F)CC4)ccn3)[nH]c2c1` (single isomer, unassigned) [Example 114.02, 1-(4-{(1R or 1S)-1-[2-({6-[6-(cyclobutylamino)-5-methoxypyrimidin-4-yl]-1H-benzimidazol-2-yl}amino)pyridin-4-yl]ethyl}piperazin-1-yl)-3,3,3-trifluoropropan-1-one] was run?
The IC50 was 8.27 nM.

With `COc1c(NC2CCC2)ncnc1-c1ccc2nc(Nc3cc(C(C)N4CCN(C(=O)C5CC5)CC4)ccn3)[nH]c2c1` (single isomer, unassigned) [Example 114.03, (4-{(1R or 1S)-1-[2-({6-[6-(cyclobutylamino)-5-methoxypyrimidin-4-yl]-1H-benzimidazol-2-yl}amino)pyridin-4-yl]ethyl}piperazin-1-yl)(cyclopropyl)methanone] as the compound, how does the IC50 read?
Its IC50 is 8.07 nM.

How did the IC50 turn out when `CC(c1ccnc(Nc2nc3ccc(-c4cc(N5CCC5)ncn4)cc3[nH]2)c1)N1CCN(C(=O)OC(C)(C)C)CC1` (single isomer, unassigned) [Example 115.01, tert-butyl 4-{(1R or 1S)-1-[2-({6-[6-(azetidin-1-yl)pyrimidin-4-yl]-1H-benzimidazol-2-yl}amino)pyridin-4-yl]ethyl}piperazine-1-carboxylate] was run?
Its IC50 is 1.4 nM.

Which IC50 does the source give for `CC(c1ccnc(Nc2nc3ccc(-c4cc(N5CCC5)ncn4)cc3[nH]2)c1)N1CCN(C(=O)CC(F)(F)F)CC1` (single isomer, unassigned) [Example 115.02, 1-(4-{(1R or 1S)-1-[2-({6-[6-(azetidin-1-yl)pyrimidin-4-yl]-1H-benzimidazol-2-yl}amino)pyridin-4-yl]ethyl}piperazin-1-yl)-3,3,3-trifluoropropan-1-one] here?
The IC50 was 0.76 nM.

`CC(c1ccnc(Nc2nc3ccc(-c4cc(N5CCC5)ncn4)cc3[nH]2)c1)N1CCN(C(=O)C2CC2)CC1` (single isomer, unassigned) [Example 115.03, (4-{(1R or 1S)-1-[2-({6-[6-(azetidin-1-yl)pyrimidin-4-yl]-1H-benzimidazol-2-yl}amino)pyridin-4-yl]ethyl}piperazin-1-yl)(cyclopropyl)methanone] was tested. Which IC50 did it give?
The IC50 was 0.62 nM.

For `CC(c1ccnc(Nc2nc3ccc(-c4cc(N5CC(F)(F)C5)ncn4)cc3[nH]2)c1)N1CCN(C(=O)C2CC2)CC1` (single isomer, unassigned) [Example 116.02, cyclopropyl(4-{(1R or 1S)-1-[2-({6-[6-(3,3-difluoroazetidin-1-yl)pyrimidin-4-yl]-1H-benzimidazol-2-yl}amino)pyridin-4-yl]ethyl}piperazin-1-yl)methanone], which IC50 is on record?
Its IC50 is 0.76 nM.

How did the IC50 turn out when `CC(c1ccnc(Nc2nc3ccc(-c4cc(N5CC(F)(F)C5)ncn4)cc3[nH]2)c1)N1CCN(C(=O)CC(F)(F)F)CC1` (single isomer, unassigned) [Example 116.03, 1-(4-{(1R or 1S)-1-[2-({6-[6-(3,3-difluoroazetidin-1-yl)pyrimidin-4-yl]-1H-benzimidazol-2-yl}amino)pyridin-4-yl]ethyl}piperazin-1-yl)-3,3,3-trifluoropropan-1-one] was run?
Its IC50 is 1.3 nM.

How did the IC50 turn out when `CC(c1ccnc(Nc2nc3ccc(-c4cc(N5CC(F)(F)C5)ncn4)cc3[nH]2)c1)N1CCN(C(=O)C2(C(F)(F)F)CC2)CC1` (single isomer, unassigned) [Example 116.04, (4-{(1R or 1S)-1-[2-({6-[6-(3,3-difluoroazetidin-1-yl)pyrimidin-4-yl]-1H-benzimidazol-2-yl}amino)pyridin-4-yl]ethyl}piperazin-1-yl)[1-(trifluoromethyl)cyclopropyl]methanone] was run?
Its IC50 is 1 nM.

How did the IC50 turn out when `CC(c1ccnc(Nc2nc3ccc(-c4cc(N5CCCC5)ncn4)cc3[nH]2)c1)N1CCN(C(=O)OC(C)(C)C)CC1` (single isomer, unassigned) [Example 117.01, tert-butyl 4-{(1R or 1S)-1-[2-({6-[6-(pyrrolidin-1-yl)pyrimidin-4-yl]-1H-benzimidazol-2-yl}amino)pyridin-4-yl]ethyl}piperazine-1-carboxylate] was run?
The IC50 was 2 nM.

For `CC(c1ccnc(Nc2nc3ccc(-c4cc(N5CCCC5)ncn4)cc3[nH]2)c1)N1CCN(C(=O)C2CC2)CC1` (single isomer, unassigned) [Example 117.02, cyclopropyl(4-{(1R or 1S)-1-[2-({6-[6-(pyrrolidin-1-yl)pyrimidin-4-yl]-1H-benzimidazol-2-yl}amino)pyridin-4-yl]ethyl}piperazin-1-yl)methanone], which IC50 is on record?
Its IC50 is 0.33 nM.

For `CC(c1ccnc(Nc2nc3ccc(-c4cc(N5CCCC5)ncn4)cc3[nH]2)c1)N1CCN(C(=O)CC(F)(F)F)CC1` (single isomer, unassigned) [Example 117.03, 3,3,3-trifluoro-1-(4-{(1R or 1S)-1-[2-({6-[6-(pyrrolidin-1-yl)pyrimidin-4-yl]-1H-benzimidazol-2-yl}amino)pyridin-4-yl]ethyl}piperazin-1-yl)propan-1-one], which IC50 is on record?
Its IC50 is 0.49 nM.

With `CC(c1ccnc(Nc2nc3ccc(-c4cc(N5CCCC5)ncn4)cc3[nH]2)c1)N1CCN(C(=O)C2(C(F)(F)F)CC2)CC1` (single isomer, unassigned) [Example 117.04, (4-{(1R or 1S)-1-[2-({6-[6-(pyrrolidin-1-yl)pyrimidin-4-yl]-1H-benzimidazol-2-yl}amino)pyridin-4-yl]ethyl}piperazin-1-yl)[1-(trifluoromethyl)cyclopropyl]methanone] as the compound, how does the IC50 read?
Its IC50 is 0.819 nM.

How did the IC50 turn out when `CC(c1ccnc(Nc2nc3ccc(-c4cc(N5CCCC5)ncn4)cc3[nH]2)c1)N1CCN(C(=O)C2CC2(F)F)CC1` (single isomer, unassigned) [Example 117.05, ((1RS)-2,2-difluorocyclopropyl)(4-{(1R or 1S)-1-[2-({6-[6-(pyrrolidin-1-yl)pyrimidin-4-yl]-1H-benzimidazol-2-yl}amino)pyridin-4-yl]ethyl}piperazin-1-yl)methanone] was run?
The IC50 was 0.473 nM.

How did the IC50 turn out when `CC(c1ccnc(Nc2nc3ccc(-c4cc(N5CCCC5)ncn4)cc3[nH]2)c1)N1CCN(C(=O)C2(C)CC2(F)F)CC1` (single isomer, unassigned) [Example 117.06, [(1RS)-2,2-difluoro-1-methylcyclopropyl](4-{(1R or S)-1-[2-({6-[6-(pyrrolidin-1-yl)pyrimidin-4-yl]-1H-benzimidazol-2-yl}amino)pyridin-4-yl]ethyl}piperazin-1-yl)methanone] was run?
The IC50 was 0.86 nM.

`CC(c1ccnc(Nc2nc3ccc(-c4cc(N5CCCC5)ncn4)cc3[nH]2)c1)N1CCN(C(=O)C(C)(C)O)CC1` (single isomer, unassigned) [Example 117.07, 2-hydroxy-2-methyl-1-(4-{(1R or 1S)-1-[2-({6-[6-(pyrrolidin-1-yl)pyrimidin-4-yl]-1H-benzimidazol-2-yl}amino)pyridin-4-yl]ethyl}piperazin-1-yl)propan-1-one] was tested. Which IC50 did it give?
Its IC50 is 2.7 nM.

Which IC50 does the source give for `CC(c1ccnc(Nc2nc3ccc(-c4cc(N5CCOCC5)ncn4)cc3[nH]2)c1)N1CCN(C(=O)OC(C)(C)C)CC1` (single isomer, unassigned) [Example 118.01, tert-butyl 4-{(1R or 1S)-1-[2-({6-[6-(morpholin-4-yl)pyrimidin-4-yl]-1H-benzimidazol-2-yl}amino)pyridin-4-yl]ethyl}piperazine-1-carboxylate] here?
The IC50 was 7.9 nM.

For `CC(c1ccnc(Nc2nc3ccc(-c4cc(N5CCOCC5)ncn4)cc3[nH]2)c1)N1CCN(C(=O)C2CC2)CC1` (single isomer, unassigned) [Example 118.02, cyclopropyl(4-{(1R or 1S)-1-[2-({6-[6-(morpholin-4-yl)pyrimidin-4-yl]-1H-benzimidazol-2-yl}amino)pyridin-4-yl]ethyl}piperazin-1-yl)methanone], which IC50 is on record?
Its IC50 is 3.3 nM.

With `CC(c1ccnc(Nc2nc3ccc(-c4cc(N5CCOCC5)ncn4)cc3[nH]2)c1)N1CCN(C(=O)CC(F)(F)F)CC1` (single isomer, unassigned) [Example 118.03, 3,3,3-trifluoro-1-(4-{(1R or 1S)-1-[2-({6-[6-(morpholin-4-yl)pyrimidin-4-yl]-1H-benzimidazol-2-yl}amino)pyridin-4-yl]ethyl}piperazin-1-yl)propan-1-one] as the compound, how does the IC50 read?
The IC50 was 1.4 nM.

With `CC(c1ccnc(Nc2nc3ccc(-c4cc(N5CCOCC5)ncn4)cc3[nH]2)c1)N1CCN(C(=O)C2(C(F)(F)F)CC2)CC1` (single isomer, unassigned) [Example 118.04, (4-{(1R or 1S)-1-[2-({6-[6-(morpholin-4-yl)pyrimidin-4-yl]-1H-benzimidazol-2-yl}amino)pyridin-4-yl]ethyl}piperazin-1-yl)[1-(trifluoromethyl)cyclopropyl]methanone] as the compound, how does the IC50 read?
Its IC50 is 2.6 nM.

How did the IC50 turn out when `CC(c1ccnc(Nc2nc3ccc(-c4cc(OCC(F)(F)F)ncn4)cc3[nH]2)c1)N1CCN(C(=O)C2CC2)CC1` (single isomer, unassigned) [Example 119.03, cyclopropyl(4-{(1R or 1S)-1-[2-({6-[6-(2,2,2-trifluoroethoxy)pyrimidin-4-yl]-1H-benzimidazol-2-yl}amino)pyridin-4-yl]ethyl}piperazin-1-yl)methanone] was run?
Its IC50 is 5.93 nM.

How did the IC50 turn out when `CC(c1ccnc(Nc2nc3ccc(-c4cc(OCC(F)(F)F)ncn4)cc3[nH]2)c1)N1CCN(C(=O)C2(C(F)(F)F)CC2)CC1` (single isomer, unassigned) [Example 119.04, (4-{(1R or 1S)-1-[2-({6-[6-(2,2,2-trifluoroethoxy)pyrimidin-4-yl]-1H-benzimidazol-2-yl}amino)pyridin-4-yl]ethyl}piperazin-1-yl)[1-(trifluoromethyl)cyclopropyl]methanone] was run?
Its IC50 is 10.9 nM.

For `CC(c1ccnc(Nc2nc3ccc(-c4cc(OCC(F)(F)F)ncn4)cc3[nH]2)c1)N1CCN(C(=O)C2CC2(F)F)CC1` (single isomer, unassigned) [Example 119.05, ((1RS)-2,2-difluorocyclopropyl)(4-{(1R or 1S)-1-[2-({6-[6-(2,2,2-trifluoroethoxy)pyrimidin-4-yl]-1H-benzimidazol-2-yl}amino)pyridin-4-yl]ethyl}piperazin-1-yl)methanone], which IC50 is on record?
The IC50 was 6.35 nM.

`CC(c1ccnc(Nc2nc3ccc(-c4cnn(CC5CC5)c4)c(F)c3[nH]2)c1)N1CCN(C(=O)OC(C)(C)C)CC1` (single isomer, unassigned) [Example 121.01, tert-butyl 4-{(1R or 1S)-1-[2-({6-[1-(cyclopropylmethyl)-1H-pyrazol-4-yl]-7-fluoro-1H-benzimidazol-2-yl}amino)pyridin-4-yl]ethyl}piperazine-1-carboxylate] was tested. Which IC50 did it give?
The IC50 was 11 nM.
